Measured values: patent US20120142646A1, “Novel Compounds 621” (priority 2006, published 2012)
Structures can show the parent of a compound that is named as a salt.

Target: T1, Adrenergic β2 (Homo sapiens, UniProt P07550)
T1 construct: Adherent H292 cells were removed from tissue culture flasks; endogenous in cells; host or cells: H292 cells
Experiment: Adrenergic β2 mediated cAMP production in H292 cells (AlphaScreen cAMP detection)
Type: cell-based
Design: key to β2 Int Act: fraction of formoterol maximum activity (formoterol = 1)
Settings: Intrinsic Activity as a fraction relative to the maximum activity determined for formoterol
Experimental: Adrenergic β2 Mediated cAMP Production
H292 cells were grown in 225 cm2 flasks incubator at 37° C., 5% CO2 in RPMI medium containing, 10% (v/v) FBS (foetal bovine serum) and 2 mM L-glutamine.
Adherent H292 cells were removed from tissue culture flasks by treatment with Accutase™ cell detachment solution for 15 minutes. Flasks were incubated for 15 minutes in a humidified incubator at 37° C., 5% CO2. Detached cells were re-suspended in RPMI media (containing 10% (v/v) FBS and 2 mM L-glutamine) at 1×10^6 cells per mL. 10000 cells in 100 μL were added to each well of a tissue-culture-treated 96-well plate and the cells incubated overnight in a humidified incubator at 37° C., 5% CO2. The culture media was removed and cells were washed twice with 100 μL assay buffer and replaced with 50 μL assay buffer (HBSS solution containing 10 mM HEPES pH7.4 and 5 mM glucose). Cells were rested at room temperature for 20 minutes after which time 25 μL of rolipram (1.2 mM made up in assay buffer containing 2.4% (v/v) dimethylsulphoxide) was added. Cells were incubated with rolipram for 10 minutes after which time test compounds were added and the cells were incubated for 60 minutes at room temperature. The final rolipram concentration in the assay was 300 μM and final vehicle concentration was 1.6% (v/v) dimethylsulphoxide. The reaction was stopped by removing supernatants, washing once with 100 μL assay buffer and replacing with 50 μL lysis buffer. The cell monolayer was frozen at −80° C. for 30 minutes (or overnight).
AlphaScreen™ cAMP Detection
The concentration of cAMP (cyclic adenosine monophosphate) in the cell lysate was determined using AlphaScreen™ methodology. The frozen cell plate was thawed for 20 minutes on a plate shaker then 10 μL of the cell lysate was transferred to a 96-well white plate. 40 μL of mixed AlphaScreen™ detection beads pre-incubated with biotinylated cAMP, was added to each well and the plate incubated at room temperature for 10 hours in the dark. The AlphaScreen™ signal was measured using an EnVision spectrophotometer (Perkin-Elmer Inc.) with the recommended manufacturer's settings. cAMP concentrations were determined by reference to a calibration curve determined in the same experiment using standard cAMP concentrations. Concentration response curves for agonists were constructed and data was fitted to a four parameter logistic equation to determine both the pEC50 and Intrinsic Activity. Intrinsic Activity was expressed as a fraction relative to the maximum activity determined for formoterol in each experiment.

T1 sequence (P07550 whole entry): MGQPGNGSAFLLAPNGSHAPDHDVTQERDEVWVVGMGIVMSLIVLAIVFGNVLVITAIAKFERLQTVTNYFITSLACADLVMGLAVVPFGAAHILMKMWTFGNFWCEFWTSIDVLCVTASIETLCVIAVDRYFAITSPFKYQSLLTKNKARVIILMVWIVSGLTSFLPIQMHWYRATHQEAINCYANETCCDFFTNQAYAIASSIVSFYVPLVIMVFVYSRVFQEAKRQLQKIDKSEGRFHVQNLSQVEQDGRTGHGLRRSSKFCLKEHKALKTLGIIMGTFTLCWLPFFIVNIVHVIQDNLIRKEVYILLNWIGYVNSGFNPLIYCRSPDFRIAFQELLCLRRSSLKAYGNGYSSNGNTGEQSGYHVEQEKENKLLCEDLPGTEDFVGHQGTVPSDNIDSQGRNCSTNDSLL

Structure (SMILES) | β2 Int Act
O=C(CCNCCc1ccc(Cl)cc1)N(CCNCCc1ccc(O)c2[nH]c(=O)ccc12)C1CCCCC1 [Example 14, 3-(4-Chlorophenethylamino)-N-cyclohexyl-N-(2-(2-(8-hydroxy-2-oxo-1,2-dihydroquinolin-5-yl)ethylamino)ethyl)propanamide bis(trifluoroacetate)] | 0.88
CCCC[C@@H](C)N(CCNCCc1ccc(O)c2c1OCC(=O)N2)C(=O)CCNCCc1ccccc1Cl [Example 46, (R)-3-(2-Chlorophenethylamino)-N-(hexan-2-yl)-N-(2-(2-(5-hydroxy-3-oxo-3,4-dihydro-2H-benzo[b][1,4]oxazin-8-yl)ethylamino)ethyl)propanamide bis(trifluoroacetate)] | 0.89
O=C(CCOCCc1ccccc1)N(CCNCCc1ccc(O)c2[nH]c(=O)ccc12)C1CCCCC1 [Example 2, N-Cyclohexyl-N-(2-(2-(8-hydroxy-2-oxo-1,2-dihydroquinolin-5-yl)ethylamino)ethyl)-3-phenethoxypropanamide] | 0.93
O=C(CCNCCc1cccc(Cl)c1)N(CCNCCc1ccc(O)c2[nH]c(=O)ccc12)C1CCCCCC1 [Example 3, 3-(3-Chlorophenethylamino)-N-cycloheptyl-N-(2-(2-(8-hydroxy-2-oxo-1,2-dihydroquinolin-5-yl)ethylamino)ethyl)propanamide bis(trifluoroacetate)] | 0.82
O=C(CCNCCc1cc(F)cc(F)c1)N(CCNCCc1ccc(O)c2[nH]c(=O)ccc12)C1CCCCC1 [Example 15, N-Cyclohexyl-3-(3,5-difluorophenethylamino)-N-(2-(2-(8-hydroxy-2-oxo-1,2-dihydroquinolin-5-yl)ethylamino)ethyl)propanamide bis(trifluoroacetate)] | 0.88
O=C1COc2c(CCNCCN(C(=O)CCNCCc3cccc(Cl)c3F)C3CCCCC3)ccc(O)c2N1 [Example 39, 3-(3-Chloro-2-fluorophenethylamino)-N-cyclohexyl-N-(2-(2-(5-hydroxy-3-oxo-3,4-dihydro-2H-benzo[b][1,4]oxazin-8-yl)ethylamino)ethyl)propanamide bis(trifluoroacetate)] | 0.98
O=CNc1cc(CCNCCN(C(=O)CCNCCc2ccccc2)C2CCCCC2)ccc1O [Example 21, N-Cyclohexyl-N-(2-(3-formamido-4-hydroxyphenethylamino)ethyl)-3-(phenethylamino)propanamide] | 0.83
O=C1COc2c(CCNCCN(C(=O)CCNCCc3ccccc3Cl)C3CCCCC3)ccc(O)c2N1 [Example 28, 3-(2-Chlorophenethylamino)-N-cyclohexyl-N-(2-(2-(5-hydroxy-3-oxo-3,4-dihydro-2H-benzo[b][1,4]oxazin-8-yl)ethylamino)ethyl)propanamide bis(trifluoroacetate)] | 0.86
O=C1COc2c(CCNCCN(C(=O)CCNCCc3cc(F)ccc3F)C3CCCCC3)ccc(O)c2N1 [Example 38, N-Cyclohexyl-3-(2,5-difluorophenethylamino)-N-(2-(2-(5-hydroxy-3-oxo-3,4-dihydro-2H-benzo[b][1,4]oxazin-8-yl)ethylamino)ethyl)propanamide bis(trifluoroacetate)] | 0.98
O=C1COc2c(CCNCCN(C(=O)CCNCCc3cc(F)cc(Cl)c3)C3CCCCC3)ccc(O)c2N1 [Example 41, 3-(3-Chloro-5-fluorophenethylamino)-N-cyclohexyl-N-(2-(2-(5-hydroxy-3-oxo-3,4-dihydro-2H-benzo[b][1,4]oxazin-8-yl)ethylamino)ethyl)propanamide bis(trifluoroacetate)] | 0.95
CCOc1cccc(CCNCCC(=O)N(CCNCCc2ccc(O)c3[nH]c(=O)ccc23)C2CCCCCC2)c1 [Example 11, N-Cycloheptyl-3-(3-ethoxyphenethylamino)-N-(2-(2-(8-hydroxy-2-oxo-1,2-dihydroquinolin-5-yl)ethylamino)ethyl)propanamide bis(trifluoroacetate)] | 0.65
O=C(CCNCCc1cccc(Cl)c1)N(CCNCCc1ccc(O)c2[nH]c(=O)ccc12)C1CCCCC1 [Example 13, 3-(3-Chlorophenethylamino)-N-cyclohexyl-N-(2-(2-(8-hydroxy-2-oxo-1,2-dihydroquinolin-5-yl)ethylamino)ethyl)propanamide bis(trifluoroacetate)] | 0.86
O=C1COc2c(CCNCCN(C(=O)CCNCCc3cc(F)cc(F)c3)C3CCCCC3)ccc(O)c2N1 [Example 35, N-Cyclohexyl-3-(3,5-difluorophenethylamino)-N-(2-(2-(5-hydroxy-3-oxo-3,4-dihydro-2H-benzo[b][1,4]oxazin-8-yl)ethylamino)ethyl)propanamide bis(trifluoroacetate)] | 0.87
O=C(CCNCCc1ccc(Cl)cc1)N(CCNCCc1ccc(O)c2[nH]c(=O)ccc12)C1CCCCCC1 [Example 4, 3-(4-Chlorophenethylamino)-N-cycloheptyl-N-(2-(2-(8-hydroxy-2-oxo-1,2-dihydroquinolin-5-yl)ethylamino)ethyl)propanamide bis(trifluoroacetate)] | 0.79

The next lines start with the values.

β2 Int Act | Structure (SMILES)
0.96 | CCCC[C@@H](C)N(CCNCCc1ccc(O)c2c1OCC(=O)N2)C(=O)CCNCCc1cc(F)ccc1F [Example 54, (R)-3-(2,5-Difluorophenethylamino)-N-(hexan-2-yl)-N-(2-(2-(5-hydroxy-3-oxo-3,4-dihydro-2H-benzo[b][1,4]oxazin-8-yl)ethylamino)ethyl)propanamide bis(trifluoroacetate)]
0.91 | CCCC[C@@H](C)N(CCNCCc1ccc(O)c2c1OCC(=O)N2)C(=O)CCNCCc1cc(C)ccc1F [Example 56, (R)-3-(2-Fluoro-5-methylphenethylamino)-N-(hexan-2-yl)-N-(2-(2-(5-hydroxy-3-oxo-3,4-dihydro-2H-benzo[b][1,4]oxazin-8-yl)ethylamino)ethyl)propanamide bis(trifluoroacetate)]
0.91 | CC[C@@H](C)N(CCNCCc1ccc(O)c2c1OCC(=O)N2)C(=O)CCNCCc1ccc(Cl)c(Cl)c1 [Example 58, (R)—N-sec-Butyl-3-(3,4-dichlorophenethylamino)-N-(2-(2-(5-hydroxy-3-oxo-3,4-dihydro-2H-benzo[b][1,4]oxazin-8-yl)ethylamino)ethyl)propanamide dihydrochloride]
1.1 | O=C1COc2c(CCNCCN(C(=O)CCOCCc3ccccc3F)C3CCCCC3)ccc(O)c2N1 [Example 76, N-Cyclohexyl-3-(2-fluorophenethoxy)-N-(2-(2-(5-hydroxy-3-oxo-3,4-dihydro-2H-benzo[b][1,4]oxazin-8-yl)ethylamino)ethyl)propanamide trifluoroacetate]
0.86 | Cc1cc(CCNCCC(=O)N(CCNCCc2ccc(O)c3c2OCC(=O)N3)C2CCCCCC2)ccc1F [Example 62, N-Cycloheptyl-3-(4-fluoro-3-methylphenethylamino)-N-(2-(2-(5-hydroxy-3-oxo-3,4-dihydro-2H-benzo[b][1,4]oxazin-8-yl)ethylamino)ethyl)propanamide bis(trifluoroacetate)]
0.95 | CCCC[C@@H](C)N(CCNCCc1ccc(O)c2c1OCC(=O)N2)C(=O)CCNCCc1ccc(F)c(F)c1 [Example 52, (R)-3-(3,4-Difluorophenethylamino)-N-(hexan-2-yl)-N-(2-(2-(5-hydroxy-3-oxo-3,4-dihydro-2H-benzo[b][1,4]oxazin-8-yl)ethylamino)ethyl)propanamide bis(trifluoroacetate)]
0.85 | Cl.O=C(CCOCCc1ccc(F)cc1)N(CCNCCc1ccc(O)c2[nH]c(=O)ccc12)C1CCCCC1 [Example 71, N-Cyclohexyl-3-(4-fluorophenethoxy)-N-(2-(2-(8-hydroxy-2-oxo-1,2-dihydroquinolin-5-yl)ethylamino)ethyl)propanamide hydrochloride]
0.93 | O=C1COc2c(CCNCCN(C(=O)CCNCCc3cc(F)cc(F)c3)C3CCCCCC3)ccc(O)c2N1 [Example 65, N-Cycloheptyl-3-(3,5-difluorophenethylamino)-N-(2-(2-(5-hydroxy-3-oxo-3,4-dihydro-2H-benzo[b][1,4]oxazin-8-yl)ethylamino)ethyl)propanamide bis(trifluoroacetate)]
0.89 | CCCC[C@@H](C)N(CCNCCc1ccc(O)c2c1OCC(=O)N2)C(=O)CCNCCc1ccc(F)c(C)c1 [Example 47, (R)-3-(4-Fluoro-3-methylphenethylamino)-N-(hexan-2-yl)-N-(2-(2-(5-hydroxy-3-oxo-3,4-dihydro-2H-benzo[b][1,4]oxazin-8-yl)ethylamino)ethyl)propanamide bis(trifluoroacetate)]
